Results as given in US20170340588A1, “MODULATION OF REGULATORY T CELLS VIA G-COUPLED PROTEIN RECEPTOR 43” (President and Fellows of Harvard College, priority 2013, published 2017).
Like-named read-outs stand apart in the source and are kept apart here.

Key:
[1] = Stability of SCFA mix in mouse water bottle over time; type: physicochemical; details: for SCFA mix in mouse water bottle over time, Day 1 / SCFA mix in mouse water bottle over time, Day 4 / SCFA mix in mouse water bottle over time, Day 7 / SCFA mix in mouse water bottle over time, Day 10 / SCFA mix in mouse water bottle over time, Day 14 / SCFA mix in mouse water bottle over time, Day 90: input 200 mM
Protocol: Mice were treated for 21 days with either sodium acetate (150 mM), sodium propionate (150 mM), sodium butyrate (100 mM) or a SCFA mix (67.5 mM acetate, 40 mM Butyrate, 25.9 mM Propionate) in the drinking water. In in vivo drinking water treatment experiments, control mice received pH and sodium-matched water. At the conclusion of the experiment mice were removed from isolators and processed immediately.

[2] = mouse, in vivo
Protocol: At the conclusion of the experiment mice were removed from isolators and processed immediately.
Cecal or small intestinal contents were collected immediately after animals were sacrificed and flash frozen in N2(1). Samples were mashed in 500 μl HPLC grade water and centrifuged at >14,000 x g, the resulting supernatant was then passed through a 0.22 μm syringe filter to remove bacterial cells and debris. Samples we then acidified with 1/10 volume of 0.01M H2SO4, heated and passed through a condenser to isolate volatile compounds within a sample. SCFA analyses were performed using an Agilent 1200 series HPLC and a Poroshell 120 SB C18 column (2.7 μm, 3.0×100mm) with guard column (Agilent Technologies). Sulfuric acid (0.01M) was used as the mobile phase. SCFA concentrations were weight corrected.

colonic Treg (cTreg) = test: Antibiotic (vancomycin) treatment of SPF mice with or without SCFA; type: in vivo; details: SPF mice, vancomycin alone in drinking water
Protocol: Science 341: 1645 (2013). […] The crude cell suspension was loaded onto a 40%/90% Percoll (GE Healthcare) gradient and centrifuged at 720 x g for 25 min at room temperature with acceleration and brake turned off. LP lymphocytes were collected from the 40%/90% interface. Intracellular staining of the transcription factors Foxp3, Helios and T-bet was performed using the Foxp3 Fix/Perm Buffer Set (Biolegend). For detection of intracellular cytokines, cells were first stimulated for 4 h with 50 ng/ml PMA and 1 μg/ml ionomycin in the presence of Brefeldin A (All obtained from Sigma), followed by staining for surface markers. Cells were then fixed and permeabilized using the Foxp3 Fix/Perm Buffer Set (Biolegend) and stained for intracellular cytokines. The following antibodies were used: […] All antibodies were obtained from Biolegend unless otherwise noted. Flow cytometry was performed using LSRII and data were analyzed with FlowJo software (TreeStar, Inc.). Cell sorting was performed using a […] at the Dana-Farber Cancer Institute Flow Cytometry Core.

SMILES	SCFA mix in mouse water bottle over time, Input (Day 0) [1] [mM]	SCFA mix in mouse water bottle over time, Day 1 [1] [mM]	SCFA mix in mouse water bottle over time, Day 4 [1] [mM]	SCFA mix in mouse water bottle over time, Day 7 [1] [mM]	SCFA mix in mouse water bottle over time, Day 10 [1] [mM]	SCFA mix in mouse water bottle over time, Day 14 [1] [mM]	SCFA mix in mouse water bottle over time, Day 90 [1] [mM]	SCFA levels, SPF SI [2] [µmol/g]	SCFA levels, cecal contents, ASF [2] [µmol/g]	SCFA levels, cecal contents, GF [2] [µmol/g]	SCFA levels, cecal contents, SPF [2] [µmol/g]	also measured
CC(=O)O [Acetate, acetic acid]	200	195	220.1	192.2	196.3	202.5	56.1	15.19 ± 9.2	28.69 ± 8.32	2.82 ± 0.534	40.66 ± 5.86	SCFA levels, SPF SI + P [2]: 15.46 ± 3.69 µmol/g; SCFA levels, cecal contents, GF + A [2]: 16.18 ± 4.65 µmol/g; SCFA levels, cecal contents, GF + Mic [2]: 20.83 ± 0.47 µmol/g; SCFA levels, cecal contents, SPF + A [2]: 53.95 ± 1.91 µmol/g; SCFA levels, cecal contents, SPF + Vanco [2]: 8.63 ± 1.73 µmol/g
CCCC(=O)O [Butyrate, butyric acid]	200	203.09	202.85	202.27	202.69	202.19	38	7.183 ± 2.39	16.89 ± 1.46	2.13 ± 0.598	18.52 ± 4.92	SCFA levels, cecal contents, SPF + B ([2]; BALB/c, 2 weeks): 29.78 ± 6.202 µmol/g; SCFA levels, cecal contents, GF + B ([2]; BALB/c, 21 days): 11.46 ± 1.46 µmol/g; SCFA levels, cecal contents, GF + Mic ([2]; BALB/c, 21 days): 20.6 ± 3.96 µmol/g; SCFA levels, SPF SI + P ([2]; 2 weeks): 6.45 ± 2.11 µmol/g; SCFA levels, cecal contents, SPF + Vanco ([2]; 4 weeks): 1.04 ± 0.903 µmol/g
CN[C@H](CC(C)C)C(=O)N[C@H]1C(=O)N[C@@H](CC(N)=O)C(=O)N[C@H]2C(=O)N[C@H]3C(=O)N[C@H](C(=O)N[C@H](C(=O)O)c4cc(O)cc(O)c4-c4cc3ccc4O)[C@H](O)c3ccc(c(Cl)c3)Oc3cc2cc(c3O[C@@H]2O[C@H](CO)[C@@H](O)[C@H](O)[C@H]2O[C@H]2C[C@](C)(N)[C@H](O)[C@H](C)O2)Oc2ccc(cc2Cl)[C@H]1O [vancomycin, reference compound]	–	–	–	–	–	–	–	–	–	–	–	cTreg level (colonic Treg (cTreg)): reduced
